Data on 16 compounds can be found in patent US11524966B1 (Valo Early Discovery, Inc., priority 2017, dated 2022).

pIC50: −log10 of the molar value.

In the test the target is T1, USP28 (His-tagged USP28-FL-mammalian) (Homo sapiens, UniProt Q96RU2).
T1 construct: Expression of USP28 (1-1077)-TEV-6*His (pTT5 vector); made in house; host or cells: Expi293f cells (pTT5 vector)
T1 sequence (Q96RU2 1-1077): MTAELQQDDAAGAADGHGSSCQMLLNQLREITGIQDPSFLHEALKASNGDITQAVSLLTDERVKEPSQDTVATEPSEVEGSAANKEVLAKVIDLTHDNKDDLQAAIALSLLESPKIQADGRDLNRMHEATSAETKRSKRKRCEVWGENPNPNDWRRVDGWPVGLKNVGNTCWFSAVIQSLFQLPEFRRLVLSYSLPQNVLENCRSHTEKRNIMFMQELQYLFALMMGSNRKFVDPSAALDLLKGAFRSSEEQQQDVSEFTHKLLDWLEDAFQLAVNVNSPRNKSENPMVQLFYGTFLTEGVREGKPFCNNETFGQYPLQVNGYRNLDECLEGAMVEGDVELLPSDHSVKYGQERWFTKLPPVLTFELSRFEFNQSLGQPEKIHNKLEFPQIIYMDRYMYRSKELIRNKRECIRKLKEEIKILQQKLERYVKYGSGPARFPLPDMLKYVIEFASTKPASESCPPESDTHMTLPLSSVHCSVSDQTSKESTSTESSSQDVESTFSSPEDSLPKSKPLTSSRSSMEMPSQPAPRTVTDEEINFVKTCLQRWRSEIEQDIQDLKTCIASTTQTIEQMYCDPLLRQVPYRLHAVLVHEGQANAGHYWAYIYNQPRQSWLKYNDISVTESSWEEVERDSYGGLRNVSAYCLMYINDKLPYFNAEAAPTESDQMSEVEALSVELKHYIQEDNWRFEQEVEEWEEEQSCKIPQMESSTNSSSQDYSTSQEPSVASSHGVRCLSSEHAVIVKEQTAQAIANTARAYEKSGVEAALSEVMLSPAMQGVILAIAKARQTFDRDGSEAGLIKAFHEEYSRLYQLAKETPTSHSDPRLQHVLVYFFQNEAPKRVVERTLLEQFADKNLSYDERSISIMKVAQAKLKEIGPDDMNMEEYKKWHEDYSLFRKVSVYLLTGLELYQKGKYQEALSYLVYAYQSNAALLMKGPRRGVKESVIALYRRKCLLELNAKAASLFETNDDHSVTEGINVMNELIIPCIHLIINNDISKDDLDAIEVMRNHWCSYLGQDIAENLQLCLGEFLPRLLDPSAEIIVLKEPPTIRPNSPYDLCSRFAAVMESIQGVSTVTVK
Put plainly: Ubiquitin-Rhodamine 110 Assay for USP28 Activity, Example A-1(a). It counts as biochemical. To be noted: Ubiquitin-Rhodamine 110 assay, Example A-1(a); read-out: USP28 A-1(a) IC50 range. The method, then: Example A-1(a): Biochemical Assay: Ubiquitin-Rhodamine 110 Assay for USP28 Activity
The assay was performed in a final volume of 9 μL in assay buffer containing 20 mM Tris-HCl (pH 8.0, (1M Tris-HCl, pH 8.0 solution; Corning 46-031-CM)), 3 mM BME (2-Mercaptoethanol; Sigma 63689-25ML-F), 0.03% BGG (0.22 μM filtered, Sigma, G7516-25G), and 0.01% Triton X-100 (Sigma, T9284-10L). Nanoliter quantities of 10-point, 3-fold serial dilution in DMSO was pre-dispensed into 1536 assay plates (Corning, #3724BC) for a final test concentration of 25 μM to 1.3 nM, top to lowest dose, respectively. Enzyme USP28, construct His-tagged USP28-FL-mammalian, (protein expression and purification procedure described below). Concentration and incubation times were optimized for the maximal signal-to-background while maintaining initial velocity conditions at a fixed substrate concentration. The final concentration of the enzyme in the assay was 75 μM. Final substrate (Ub-Rh110; Ubiquitin-Rhodamine 110, UbiQ-126) concentration was 25 nM with [Ub-Rh110]<<Km. 3 μL of 2× enzyme was added to assay plates (pre-stamped with compound) preincubated with […] for 30 minutes and then 3 μL of 2×Ub-Rh110 was added to assay plates. Plates were incubated for 45 minutes at room temperature before addition of 3 μL of stop solution (final concentration of 10 mM citric acid (Sigma, 251275-500G)). Fluorescence was read on the Envision (Excitation at 485 nm and Emission at 535 nm; Perkin Elmer) or on the PheraSTAR (Excitation at 485 nm and Emission at 535 nm; BMG Labtech).
Procedure for the Protein Expression and Purification for Construct His-Tagged USP28-FL-Mammalian
Expression of USP28 (1-1077)-TEV-6*His (pTT5 vector) was carried out in Expi293f cells (sequence derived from uniprot ID: Q96RU2-1). Cells were re-suspended in lysis buffer B 50 mM Bicine, pH 8.0, 20 mM NaCl, 5% glycerol, 0.1% CHAPS, 5 mM β-ME, 1 mM PMSF, 1 ug/ml Leupeptin, 1 ug/ml Pepstatin) and lysed by sonication. Insoluble material was removed by centrifugation and the supernatant was loaded onto a Ni-NTA column (GE Healthcare) equilibrated with Ni Buffer A (50 mM Bicine, pH 8.0, 20 mM NaCl, 5% glycerol, 0.1% CHAPS, 5 mM β-ME.) and washed with Ni Buffer A+20 mM imidazole until A280 reached baseline. The protein was eluted with Ni Buffer B (50 mM Bicine, pH 8.0, 20 mM NaCl, 5% glycerol, 0.1% CHAPS, 5 mM β-ME, 300 mM imidazole.). The protein was further purified using a Superdex™ 200 10/300 GL column (GE Healthcare) equilibrated with 50 mM Bicine, pH 8.0, 20 mM NaCl, 5% glycerol, 0.1% CHAPS, 5 mM β-ME. The protein was concentrated to 2.5 mg ml^−1, flash-frozen in liquid N2 and stored at −80° C.
For assay formats Example A-1(a), A-1(b), and A-2, data were reported as percent inhibition compared with control wells based on the following equation: % inh=1−((FLU−AveLow)/(AveHigh−AveLow)) where FLU=measured Fluorescence, AveLow=average Fluorescence of no enzyme control (n=16), and AveHigh=average Fluorescence of DMSO control (n=16). IC50 values were determined by curve fitting of the standard 4 parameter logistic fitting algorithm included in the Activity Base software package: IDBS XE Designer Model 205. Data is fitted using the Levenburg Marquardt algorithm.
As to `Cc1ccc2c(N)c(C(=O)N[C@H]3CCc4nc(N5C[C@H](OC(C)C)[C@@H](N)C5)ncc4C3)sc2n1` [Example 271, 3-amino-N-[(6S)-2-[(3S,4S)-3-amino-4-(propan-2-yloxy)pyrrolidin-1-yl]-5,6,7,8-tetrahydroquinazolin-6-yl]-6-methylthieno[2,3-b]pyridine-2-carboxamide], the pIC50 was less than 5.70.
To `CCn1ccc2cc(C(=O)N[C@H]3CCc4nc(N5C[C@H](C(F)F)[C@@H](N)C5)ccc4C3)cnc21` [Example 370, N-[(6S)-2-[(3R,4S)-3-amino-4-(difluoromethyl)pyrrolidin-1-yl]-5,6,7,8-tetrahydroquinolin-6-yl]-1-ethyl-1H-pyrrolo[2,3-b]pyridine-5-carboxamide] belongs 5.70 to 6.70.
As for `Cc1ccc2c(N)c(C(=O)N[C@H]3COc4nc(N5C[C@H](C(F)F)[C@@H](N)C5)ccc4C3)sc2n1` [Example 378, 3-amino-N-[(3R)-7-[(3R,4S)-3-amino-4-(difluoromethyl)pyrrolidin-1-yl]-2H,3H,4H-pyrano[2,3-b]pyridin-3-yl]-6-methylthieno[2,3-b]pyridine-2-carboxamide], the figure is 6.70 to 7.30; as for `CO[C@]12CCN[C@@H]1CN(c1ccc3c(c1)OC[C@H](NC(=O)c1sc4nc(C)ccc4c1N)C3)C2` [Example 290, N-[(3R )-7-[(3aS,6aR)-3a-methoxy-octahydropyrrolo[2,3-c]pyrrol-5-yl]-3,4-dihydro-2H-1-benzopyran-3-yl]-3-amino-6-methylthieno[2,3-b]pyridine-2-carboxamide], 7.30 to 9.00.
To `CCn1ccc2cc(C(=O)N[C@H]3CCc4nc(N5C[C@@H](N)C6(COC6)C5)ccc4C3)cnc21` [Example 404, N-[(6S)-2-[(8S)-8-amino-2-oxa-6-azaspiro[3.4]octan-6-yl]-5,6,7,8-tetrahydroquinolin-6-yl]-1-ethyl-1H-pyrrolo[2,3-b]pyridine-5-carboxamide] belongs 5.70 to 6.70; to `CCn1ccc2cc(C(=O)N[C@H]3CCc4nc(N5C[C@@H](N)[C@H](C(F)(F)F)C5)ccc4C3)cnc21` [Example 422, N-[(6S)-2-[(3S,4R)-3-amino-4-(trifluoromethyl)pyrrolidin-1-yl]-5,6,7,8-tetrahydroquinolin-6-yl]-1-ethyl-1H-pyrrolo[2,3-b]pyridine-5-carboxamide], 5.70 to 6.70; to `Cc1ccc2c(N)c(C(=O)N[C@H]3CCc4nc(N5C[C@@H](N)C6(C5)OCCO6)ccc4C3)sc2n1` (single isomer, unassigned) [Example 29-2], 5.70 to 6.70.
For `Cc1ccc2c(N)c(C(=O)N[C@H]3CCc4nc(N5C[C@H](C(F)F)[C@@H](N)C5)ncc4C3)sc2n1` [Example 380, 3-amino-N-[(6S)-2-[(3R,4S)-3-amino-4-(difluoromethyl)pyrrolidin-1-yl]-5,6,7,8-tetrahydroquinazolin-6-yl]-6-methylthieno[2,3-b]pyridine-2-carboxamide], the pIC50 was 6.70 to 7.30.
As to `Cc1cc(C)c2c(N)c(C(=O)N[C@H]3CCc4nc(N5C[C@H](OC(C)C)[C@@H](N)C5)ncc4C3)sc2n1` (single isomer, unassigned) [Example 31-1], the pIC50 is 6.70 to 7.30.
As for `Cc1ccc2c(N)c(C(=O)N[C@@H]3CCc4nc(N5C[C@H](C(F)F)[C@@H](N)C5)ncc4C3)sc2n1` [Example 383, 3-amino-N-[(6R)-2-[(3R,4S)-3-amino-4-(difluoromethyl)pyrrolidin-1-yl]-5,6,7,8-tetrahydroquinazolin-6-yl]-6-methylthieno[2,3-b]pyridine-2-carboxamide], the figure is less than 5.70; as for `Cc1ccc2c(N)c(C(=O)N[C@H]3CCc4nc(N5C[C@H]6COC[C@@H](C5)[C@@H]6N)ccc4C3)sc2n1` [Example 397, 3-amino-6-methyl-N-[(6S)-2-[(1R,5S,9s)-9-amino-3-oxa-7-azabicyclo[3.3.1]nonan-7-yl]-5,6,7,8-tetrahydroquinolin-6-yl]thieno[2,3-b]pyridine-2-carboxamide], 6.70 to 7.30; as for `COCCO[C@@H]1CN(c2ccc3c(n2)CC[C@H](NC(=O)c2sc4nc(C)ccc4c2N)C3)C[C@H]1N` (single isomer, unassigned) [Example 28-2], 5.70 to 6.70.
To `Cc1ccc2c(N)c(C(=O)N[C@H]3CCc4nc(N5C[C@H]6COC[C@@H](C5)[C@H]6N)ccc4C3)sc2n1` [Example 396, 3-amino-6-methyl-N-[(6S)-2-[(1R,5S,9r)-9-amino-3-oxa-7-azabicyclo[3.3.1]nonan-7-yl]-5,6,7,8-tetrahydroquinolin-6-yl]thieno[2,3-b]pyridine-2-carboxamide] belongs 6.70 to 7.30; to `Cc1ccc2c(N)c(C(=O)N[C@H]3COc4cc(N5CC[C@]6(C5)OCC[C@H]6N)ccc4C3)sc2n1` [Example 410, 3-amino-N-[(3R)-7-[(4R,5R)-4-amino-1-oxa-7-azaspiro[4.4]nonan-7-yl]-3,4-dihydro-2H-1-benzopyran-3-yl]-6-methylthieno[2,3-b]pyridine-2-carboxamide], 7.30 to 9.00; to `COC[C@]1(N)CCN(c2ccc3c(n2)CC[C@H](NC(=O)c2sc4nc(C)ccc4c2N)C3)C1` [Example 389, 3-amino-N-[(6S)-2-[(3S)-3-amino-3-(methoxymethyl)pyrrolidin-1-yl]-5,6,7,8-tetrahydroquinolin-6-yl]-6-methylthieno[2,3-b]pyridine-2-carboxamide], 6.70 to 7.30.
As for `CO[C@@]12CCN[C@H]1CN(c1ccc3c(n1)CC[C@H](NC(=O)c1sc4nc(C)ccc4c1N)C3)C2` [Example 434, N-[(6S)-2-[(3aR,6aS)-3a-methoxy-octahydropyrrolo[2,3-c]pyrrol-5-yl]-5,6,7,8-tetrahydroquinolin-6-yl]-3-amino-6-methylthieno[2,3-b]pyridine-2-carboxamide], the figure is 6.70 to 7.30.
